Reference: patent publication US6841376B2, “Bistable genetic toggle switch” (Cellicon Technologies, Inc., priority 1998, dated 2005)

How the values were obtained:
GFPmut3 expression [1] = experiment: Demonstration of bistability of toggle and control plasmids; assay type: cell-based, E. coli strain JM2.300; settings: for GFP EXPRESSION (bistable or monostable behaviour): Toggles, Type IV plasmids; for bistability: Type IV toggle plasmids with RBS1 sequences of varying efficiency
Text: In order to test the limits of bistability of the toggle switch, the al parameter was varied experimentally by inserting RBS1 sequences of varying efficiency into pTAK (Class 1) and pIKE (Class 2) toggle switches of Type IV. Four pTAK series plasmids (Class 1) were constructed with RBS1 sequences D,F,G and H, and two pIKE series plasmids (Class 2) were constructed with RBS1 sequences A and C (Table 6).
The existence of bistability is illustrated in FIG. 12. In this experiment, the toggle and control plasmids were grown in E. coli strain JM2.300 for 23.5 hours. At 6, 11, 18 and 23.5 hours, samples were taken and cells were pelleted, washed once in LB or PBS, and diluted 500-1000 fold into fresh medium with or without inducers as appropriate. […] Cells were washed and diluted into fresh medium with no IPTG and grown an additional 5 hours. […] Cells were diluted into fresh medium and induced at 42° C. (pTAK plasmids only—FIG. 12A) or grown in the presence of 500 ng/ml aTc (pIKE plasmids only—FIG. 12B). […] Cells were washed and diluted into fresh medium with no inducers or returned to standard temperature.
In this experiment, a single culture of pTAK117 cells (initially in the low state) was divided into two groups and diluted. The first group was grown in medium with no inducers (squares) while the second group was grown in medium plus 2 mM IPTG (circles). After 6 hours, cells were pelleted, washed once in LB and diluted 1000 fold into fresh medium with no inducer. Both groups of cells were grown for an additional 22 hours while taking samples and diluting into fresh medium every 6-8.5 hours.

GFPmut3 expression [2] = experiment: Toggle switch induction threshold (steady-state gene expression after 17 hour IPTG induction); assay type: cell-based, E. coli strain JM2.300; settings: 17 hours in 13 different concentrations of IPTG
Method: This was tested experimentally. In this experiment, pTAK117 (initially in the low state) and pTAK102 (as a control) were grown in 13 different concentrations of IPTG for 17 hours, diluting twice (at 6 and 12.5 hours) into fresh medium with the same IPTG concentration. The cells were grown for this length of time in order to ensure that they reached steady-state expression levels. […] Point 1 was taken from separate experiments measuring the high state of pTAK117 with no inducer. Points 3a and 3b are the high and low modes of a bimodally distributed cell population. The bimodality occurred apparently due to natural fluctuations in gene expression and the close proximity of the toggle switch to its bifurcation point. Induction of the pTAK102 control has the familiar sigmoidal shape (triangles). […] This discontinuity is referred to as a saddle-node bifurcation.

GFPmut3 expression [3] = experiment: Switching time of toggle switch; assay type: cell-based, E. coli strain JM2.300
Method: In this experiment, pTAK117 cells initially in the low state were diluted in fresh medium and induced with 2 mM IPTG. Separate cultures were grown for 35 minutes to 6 hours before pelleting, washing, and diluting the cells 500 fold in fresh medium with no inducer. Growth was continued until 10.25 hours after the start of the experiment and cells were assayed in the flow cytometer. Conversely, pTAK117 cells initially in the high state were diluted in fresh medium with no inducer. Separate cultures were grown at 41±1° C. for 35 minutes to 6 hours before diluting the cells 500 fold in fresh medium with no inducer. Growth was continued at standard temperature until 10.25 hours after the start of the experiment and cells were assayed in the flow cytometer.
The cell population at four time points is illustrated. As evidenced by the appearance of a bimodal distribution at 4 hours (FIG. 15C), the pTAK117 plasmid began switching to the high state between 3 and 4 hours of IPTG induction. By five hours, the switching was nearly complete. By six hours, the switching was complete (FIGS. 15A and 15C). On the other hand, switching from the high state to the low state was completed in 35 minutes or less (FIG. 15B). In this experiment, the primary determinant of switching time appears to be the rate of destruction of the expressed transcribed repressor protein. […]

OL1-OL3 = settings: λ to OL1-OL3; cited from earlier work
GFP expression = experiment: Flow-cytometer assay of gene expression and promoter strength (GFP expression by plasmids); assay type: cell-based, E. coli strain JM2.300; settings: repressor expressed from Ptrc-2-E; 14,300/2.5
Method: The host cell for all promoter assays and toggle switch experiments was E. coli strain JM2.300 [λ-, lacI22, rpsLl35 (StrR), thi-1] (CGSC strain 5002). JM2.300, which contains few mutations and is a fast growing strain that can tolerate enormous overexpression of plasmid-bound genes. Because JM2.300 contains no λ repressor and carries a non-functional Lac repressor (lacI22), it is considered to be a suitable host for the toggle switch.
All cells were grown in LB medium (Difco) with 100 μg/ml ampicillin plus inducers as indicated in the text. All Type I and pIKE series plasmids were grown at 37±1° C., unless otherwise indicated. All pTAK series plasmids were grown at 32±1° C. except during thermal induction. […]
The following expression data was collected using a Becton-Dickinson FACSCalibur flow cytometer with a 488 nm argon excitation laser and a 515-545 nm emission filter. […] Cells were assayed at low flow rate and fluorescence was calibrated using InSpeck Green fluorescent beads (Molecular Probes). […] All flow data were converted to ASCII format using MFI (E. Martz, University of Massachusetts, Amherst, available at http://marlin.bio.umass.edu/mcbfacs/flowcat.html\##mfi) and analyzed with Matlab (Mathworks).
The strengths, in calibrated fluorescence units, of the promoter/RBS pairs used to construct the toggle switches are listed in Table 6. […]

[4] = test system: hybrid promoter: E. coli LexA operator sequence spliced into the HSV tk promoter; settings: mammalian cells that synthesized the repressor; cited from earlier work

## pTAK132: Class 1 Type IV toggle switch plasmid (SEQ ID NO: 14), PLslcon, RBS1 H
GFPmut3 expression [1]
  GFP EXPRESSION (bistable or monostable behaviour): Bistable

## pTAK117: Class 1 Type IV toggle switch plasmid (SEQ ID NO: 12), PLslcon, RBS1 D, lacI and cIts
GFPmut3 expression [2]
  shape of IPTG induction curve: quasi-discontinuous jump to the high state
GFPmut3 expression [2]; initially in the low state
  IPTG concentration at which toggle exhibits quasi-discontinuous jump to the high expression state: 40 µM
GFPmut3 expression [1]; 6 hours with or without 2 mM IPTG, then 22 hours with no inducer
  long-term stability of the two states: remained in their initial high or low states for the entire 22 hour period
GFPmut3 expression [1]
  GFP EXPRESSION (bistable or monostable behaviour): Bistable
GFPmut3 expression [3]; 2 mM IPTG induction
  switching from low to high state complete: six
GFPmut3 expression [3]; thermal induction at 41±1° C.
  switching from the high state to the low state completed: ≤ 35 min

## pTAK131: Class 1 Type IV toggle switch plasmid (SEQ ID NO: 13), PLslcon, RBS1 F
GFPmut3 expression [1]
  GFP EXPRESSION (bistable or monostable behaviour): Bistable

## λ repressor (cI): bacteriophage λ repressor protein that represses the PL promoter
OL1-OL3
  Kd: ~1 nM
GFP expression
  repression of the PLSlcon-D promoter: ~6000 fold

## pTAK130: Class 1 Type IV toggle switch plasmid (SEQ ID NO: 15), PLslcon, RBS1 G
GFPmut3 expression [1]
  GFP EXPRESSION (bistable or monostable behaviour): Bistable

## pIKE107: Class 2 Type IV toggle switch plasmid (SEQ ID NO: 17), PLtetO-1, RBS1 C
GFPmut3 expression [1]
  GFP EXPRESSION (bistable or monostable behaviour): Bistable
  bistability: exhibited bistability

## pIKE105: Class 2 Type IV toggle plasmid (SEQ ID NO: 16), PLtetO-1, RBS1 A, lacI and tetR
GFPmut3 expression [1]
  GFP EXPRESSION (bistable or monostable behaviour): Monostable
  bistability: did not exhibit bistability
GFPmut3 expression [1]; washed, diluted into fresh medium with no IPTG, additional 5 hours
  state after removal of IPTG: returned to the low state

B1: E. coli LexA repressor protein: E. coli repressor protein that represses transcription at operator site Olex (protein, UniProt P0A7C2 1-202, looked up)
LexA repressor: MKALTARQQEVFDLIRDHISQTGMPPTRAEIAQRLGFRSPNAAEEHLKALARKGVIEIVSGASRGIRLLQEEEEGLPLVGRVAAGEPLLAQQHIEGHYQVDPSLFKPNADFLLRVSGMSMKDIGIMDGDLLAVHKTQDVRNGQVVVARIDDEVTVKRLKKQGNKVELLPENSEFKPIVVDLRQQSFTIEGLAVGVIRNGDWL
[4]
  reduction of expression from hybrid LexA operator / HSV tk promoter: 10 fold
